# pIC50: −log10 of the molar value.
# Tested on: HCV replicon
# Assay: HCV replicon luciferase reporter assay
# Type: cell-based
# Details: Hepatitis C virus, Table 5; read-out: IC50
# Outline: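 Replicon-bearing dividing cells seeded at 5,000–7,500 cells/well, grown 24 h at 37° C/5% CO2, then exposed to test compound at various concentrations for a further 24–48 h. Replication/translation read by luciferase reporter; IC50 taken as compound amount giving 50% reduction in luciferase activity.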
row,SMILES,pIC50
1,"COc1ccc(-c2ccc(CNCCCNC3=NS(=O)(=O)c4ccccc43)cc2)cc1 [Compound 324, N-(1,1-dioxido-1,2-benzisothiazol-3-yl)-N′-[(4′-methoxybiphenyl-4-yl)methyl]propane-1,3-diamine]",< 5.30
2,"O=C(NCCCNc1nsc2ncccc12)C1CCN(c2nccc(C(F)(F)F)n2)CC1 [Compound 533, N-(3-(isothiazolo[5,4-b]pyridin-3-ylamino)propyl)-1-(4-(trifluoromethyl)pyrimidin-2-yl)piperidine-4-carboxamide]",> 5.30
3,"COc1ccc(C(=O)NCCCNc2nsc3ccccc23)cc1OC1CCCC1 [Compound 286, N-(3-(benzo[d]isothiazol-3-ylamino)propyl)-3-(cyclopentyloxy)-4-methoxybenzamide]",> 5.30
4,"O=C(NCCCNc1nsc2ccccc12)c1cc2cc(Cl)ccc2o1 [Compound 436, N-(3-(benzo[d]isothiazol-3-ylamino)propyl)-5-chlorobenzofuran-2-carboxamide]",> 5.30
5,"O=C(NCCCNc1nsc2ccccc12)c1cnc(O)c(Cl)c1 [Compound 452, N-(3-(benzo[d]isothiazol-3-ylamino)propyl)-5-chloro-6-hydroxynicotinamide]",< 5.30
6,"COc1ccc(-c2ccc(CNCCCNc3nsc4ccc(Br)cc34)cc2)cc1 [Compound 404, N^1-(5-bromobenzo[d]isothiazol-3-yl)-N^3-((4′-methoxybiphenyl-4-yl)methyl)propane-1,3-diamine]",> 5.30
7,"COc1cc(CNCCCNc2nsc3ccccc23)c(OCc2ccccc2)cc1OC [Compound 327, N^1-(benzo[d]isothiazol-3-yl)-N^3-(2-(benzyloxy)-4,5-dimethoxybenzyl)propane-1,3-diamine]",> 5.30
8,"COc1ccc(Cl)cc1-c1ccc(CNCCCNc2nsc3ccccc23)cc1 [Compound 294, N^1-(benzo[d]isothiazol-3-yl)-N^3-((5′-chloro-2′-methoxybiphenyl-4-yl)methyl)propane-1,3-diamine]",> 5.30
9,"O=C(O)c1ccc(C(=O)NCCNc2nsc3ccccc23)nc1 [Entry 78, 6-(2-(Benzo[d]isothiazol-3-ylamino)ethylcarbamoyl)nicotinic Acid]",< 5.30
10,"COc1cccnc1NCCCNc1nsc2ccccc12 [Compound 275, N^1-(benzo[d]isothiazol-3-yl)-N^3-(3-methoxypyridin-2-yl)propane-1,3-diamine]",> 5.30
11,"Cc1cccc(NCCCNc2nsc3ccccc23)n1 [Compound 281, N^1-(benzo[d]isothiazol-3-yl)-N^3-(6-methylpyridin-2-yl)propane-1,3-diamine]",> 5.30
12,"O=C1NC(CNc2nsc3ccccc23)C(=O)N1c1ccc(I)cc1 (stereo not drawn) [Compound 311, 5-((benzo[d]isothiazol-3-ylamino)methyl)-3-(4-iodophenyl)imidazolidine-2,4-dione]",< 5.30
13,"O=S(=O)(c1ccc(CNCCCNc2nsc3ccccc23)cc1)N1CCCC1 [Compound 260, N^1-(benzo[d]isothiazol-3-yl)-N^3-(4-(pyrrolidin-1-ylsulfonyl)benzyl)propane-1,3-diamine]",< 5.30
14,"COc1ccc(-c2ccc(C(=O)NCCCNc3nsc4c(S(=O)(=O)C(C)(C)C)cccc34)cc2)cc1 [Compound 400, N-(3-(7-(tert-butylsulfonyl)benzo[d]isothiazol-3-ylamino)propyl)-4′-methoxybiphenyl-4-carboxamide]",> 5.30
15,"O=S(=O)(NCCCNc1nsc2ccccc12)c1ccc(-c2ccccc2C(F)(F)F)cc1 [Compound 335, N-(3-(benzo[d]isothiazol-3-ylamino)propyl)-2′-(trifluoromethyl)biphenyl-4-sulfonamide]",> 5.30
16,"FC(F)(F)c1cccnc1NCCCNc1nsc2ccccc12 [Compound 276, N^1-(benzo[d]isothiazol-3-yl)-N^3-(3-(trifluoromethyl)pyridin-2-yl)propane-1,3-diamine]",> 5.30
17,"O=C(NCCNc1nsc2ccccc12)c1ccc(C(F)(F)F)cc1F [Compound 354, N-(2-(benzo[d]isothiazol-3-ylamino)ethyl)-2-fluoro-4-(trifluoromethyl)benzamide]",> 5.30
18,"CCCCc1ccc(C(=O)NCCNc2nsc3ccc(Cl)cc23)cc1 [Compound 421, 4-butyl-N-(2-(5-chlorobenzo[d]isothiazol-3-ylamino)ethyl)benzamide]",> 5.30
19,"CCCCc1ccc(NC(=O)NCCCNc2nsc3ccccc23)cc1 [Compound 379, 1-(3-(benzo[d]isothiazol-3-ylamino)propyl)-3-(4-butylphenyl)urea]",> 5.30
20,"Cc1cccnc1C(=O)NCCNc1nsc2ccccc12 [Entry 76, N-(2-(Benzo[d]isothiazol-3-ylamino)ethyl)-3-methylpicolinamide]",> 5.30

row,SMILES,pIC50
1,"CCCCc1ccc(CNCCCNc2nsc3ccccc23)cc1 [Compound 288, N^1-(benzo[d]isothiazol-3-yl)-N^3-(4-butylbenzyl)propane-1,3-diamine]",> 5.30
2,"COc1cccc(-c2cccc(C(=O)NCCCNc3nsc4ccccc34)c2)c1OC [Compound 369, N-(3-(benzo[d]isothiazol-3-ylamino)propyl)-5′,6′-dimethoxybiphenyl-3-carboxamide]",> 5.30
3,"COc1ccc(-c2cccc(CNCCCNc3nsc4ccccc34)c2)cc1 [Compound 300, N^1-(benzo[d]isothiazol-3-yl)-N^3-((4′-methoxybiphenyl-3-yl)methyl)propane-1,3-diamine]",> 5.30
4,"CS(=O)(=O)c1ccc(-c2cccc(C(=O)NCCCNc3nsc4ccccc34)n2)cc1 [Compound 440, N-(3-(benzo[d]isothiazol-3-ylamino)propyl)-6-(4-(methylsulfonyl)phenyl)picolinamide]",> 5.30
5,"O=C(NCCCNc1nsc2ccccc12)c1cccc(F)n1 [Compound 420, N-(3-(benzo[d]isothiazol-3-ylamino)propyl)-6-fluoropicolinamide]",< 5.30
6,"COc1ccc(-c2ccc(C(=O)NCCNc3nsc4ccccc34)cc2)cc1 [Compound 360, N-(2-(benzo[d]isothiazol-3-ylamino)ethyl)-4′-methoxybiphenyl-4-carboxamide]",> 5.30
7,"COc1ccc(-c2ccc(CN(C)CCCNc3nsc4ccccc34)cc2)cc1 [Compound 490, N^1-(benzo[d]isothiazol-3-yl)-N^3-((4′-methoxybiphenyl-4-yl)methyl)-N^3-methylpropane-1,3-diamine]",> 5.30
8,"COc1ccc(-c2ccc(C(=O)NCCCNc3nsc4cc(S(=O)(=O)NC(C)(C)C)ccc34)cc2)cc1 [Compound 399, N-(3-(6-(N-tert-butylsulfamoyl)benzo[d]isothiazol-3-ylamino)propyl)-4′-methoxybiphenyl-4-carboxamide]",< 5.30
9,"CC(C)(C)OC(=O)N[C@H](C(=O)NCCNc1nsc2ccccc12)c1ccccc1 [Entry 11, (S)-tert-Butyl 2-(2-(Benzo[d]isothiazol-3-ylamino)ethylamino)-2-oxo-1-phenylethylcarbamate]",> 5.30
10,"COc1ccc(-c2ccc(CNCCCNc3nsc4ccc(-c5ccc(OC)cc5)cc34)cc2)cc1 [Compound 410, N^1-((4′-methoxybiphenyl-4-yl)methyl)-N^3-(5-(4-methoxyphenyl)benzo[d]isothiazol-3-yl)propane-1,3-diamine]",> 5.30
11,"COc1ccc(-c2cccc(C(=O)NCCCNc3nsc4ccccc34)c2)cc1 [Compound 378, N-(3-(benzo[d]isothiazol-3-ylamino)propyl)-4′-methoxybiphenyl-3-carboxamide]",> 5.30
12,"N#Cc1ccnc(NCCCNc2nsc3ccccc23)c1 [Entry 229, 2-(3-(benzo[d]isothiazol-3-ylamino)propylamino)pyridine-4-carbonitrile]",> 5.30
13,"CN(CCCNc1nsc2ccccc12)S(=O)(=O)c1ccccc1C(F)(F)F [Entry 240, N-(3-(benzo[d]isothiazol-3-ylamino)propyl)-N-methyl-2-(trifluoromethyl)benzenesulfonamide]",> 5.30
14,"COc1cccc(COc2ccc(C(=O)NCCCNc3nsc4ccccc34)cc2)c1 [Entry 236, N-(3-(benzo[d]isothiazol-3-ylamino)propyl)-4-(3-methoxybenzyloxy)benzamide]",> 5.30
15,"COc1ccc2oc(C(=O)NCCCNc3nsc4ccccc34)cc2c1 [Compound 437, N-(3-(benzo[d]isothiazol-3-ylamino)propyl)-5-methoxybenzofuran-2-carboxamide]",> 5.30
16,"COc1ccc(-c2ccc(C(=O)NCCCNc3nsc4cccc(S(N)(=O)=O)c34)cc2)cc1 [Compound 401, 4′-methoxy-N-(3-(4-sulfamoylbenzo[d]isothiazol-3-ylamino)propyl)biphenyl-4-carboxamide]",< 5.30
17,"COc1ccc(NCCCNc2nsc3ccccc23)nc1 [Compound 282, N^1-(benzo[d]isothiazol-3-yl)-N^3-(5-methoxypyridin-2-yl)propane-1,3-diamine]",> 5.30
18,"c1cncc(CNCCCNc2nsc3ccccc23)c1 [Compound 308, N^1-(benzo[d]isothiazol-3-yl)-N^3-(pyridin-3-ylmethyl)propane-1,3-diamine]",< 5.30
19,"COc1ccc(-c2cccc(C(=O)NCCCNc3nsc4ccccc34)n2)c(OC)c1 [Compound 438, N-(3-(benzo[d]isothiazol-3-ylamino)propyl)-6-(2,4-dimethoxyphenyl)picolinamide]",> 5.30
20,"O=C(NCCNc1nsc2ccccc12)c1ccc(C(F)(F)F)cc1C(F)(F)F [Compound 356, N-(2-(benzo[d]isothiazol-3-ylamino)ethyl)-2,4-bis(trifluoromethyl)benzamide]",> 5.30

# Same assay, conditions: Table 5; read-out: IC50
row,SMILES,pIC50
1,"CC(C)(C)NS(=O)(=O)c1cccc2snc(NCCCN)c12 [Compound 506, 3-(3-aminopropylamino)-N-tert-butylbenzo[d]isothiazole-4-sulfonamide]",< 5.30
2,"CC(C)(C)NS(=O)(=O)c1ccc2c(NCCCN)nsc2c1 [Compound 508, 3-(3-aminopropylamino)-N-tert-butylbenzo[d]isothiazole-6-sulfonamide]",< 5.30
